Converted amounts (≈) assume the structure as drawn. The source made the active and inactive calls. The rule behind the calls is not given here.
Assays:
[1] = biological target: Hypoxia-inducible factor 1-alpha (Mus musculus) (UniProt Q61221); test: Inhibition of HIF-1alpha in mouse C2C12 cells transfected with HRE-driven firefly luciferase gene assessed as fold change in transcriptional activity at 300 uM pretreated with compound for 12 hr followed by hypoxic condition for 24 hrs by dual luciferase reporter gene assay; type: cell-based; conditions: time 36.0 hrs
Sequence of Hypoxia-inducible factor 1-alpha (Mus musculus) (Q61221 whole entry): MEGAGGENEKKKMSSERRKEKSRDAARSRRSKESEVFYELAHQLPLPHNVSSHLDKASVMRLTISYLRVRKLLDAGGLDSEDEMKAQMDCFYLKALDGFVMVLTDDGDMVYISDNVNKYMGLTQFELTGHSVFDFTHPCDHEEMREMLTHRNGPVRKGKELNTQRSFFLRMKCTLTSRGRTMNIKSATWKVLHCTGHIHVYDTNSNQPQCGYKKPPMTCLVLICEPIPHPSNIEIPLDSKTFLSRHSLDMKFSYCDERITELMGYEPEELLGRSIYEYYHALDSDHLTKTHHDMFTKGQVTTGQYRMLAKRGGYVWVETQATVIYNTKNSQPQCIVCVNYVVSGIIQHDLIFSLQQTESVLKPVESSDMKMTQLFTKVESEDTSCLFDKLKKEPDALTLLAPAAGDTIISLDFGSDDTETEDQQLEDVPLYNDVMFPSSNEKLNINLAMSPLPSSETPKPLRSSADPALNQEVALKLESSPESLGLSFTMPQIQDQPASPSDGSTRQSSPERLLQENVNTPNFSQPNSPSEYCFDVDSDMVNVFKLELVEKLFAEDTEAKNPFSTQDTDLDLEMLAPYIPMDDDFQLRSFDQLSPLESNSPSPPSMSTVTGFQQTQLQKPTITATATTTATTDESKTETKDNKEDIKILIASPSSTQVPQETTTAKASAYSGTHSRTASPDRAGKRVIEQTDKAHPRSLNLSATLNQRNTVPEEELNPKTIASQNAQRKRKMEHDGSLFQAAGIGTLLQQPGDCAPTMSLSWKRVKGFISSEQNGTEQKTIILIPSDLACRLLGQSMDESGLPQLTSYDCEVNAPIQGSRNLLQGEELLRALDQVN

[2] = biological target: Hypoxia-inducible factor 1-alpha (Mus musculus) (UniProt Q61221); test: Inhibition of HIF-1alpha in mouse C2C12 cells transfected with PDGF-B driven firefly luciferase gene assessed as transcriptional activity pretreated with compound for 12 hr followed by hypoxic condition for 24 hrs by dual luciferase reporter gene assay; type: cell-based; conditions: time 36.0 hrs
[3] = Octanol/Water partition coefficient, log P of the compound by HPLC-UV analysis
[4] = Water solubility of the compound by HPLC analysis
[5] = Dissociation constant, pKa of compound by UV-visible spectrometric method; type: physicochemical
[6] = Efflux ratio of Apparent permeability across basolateral to apical side over apical to basolateral side in human Caco-2 cells
[7] = Permeability coefficient across basolateral to apical side in human Caco-2 cells by HPLC-UV analysis
[8] = Permeability coefficient across apical to basolateral side in human Caco-2 cells by HPLC-UV analysis
C2C12 [9] = test: Angiogenic activity in mouse C2C12 cells assessed as reversal of hyperglycemia-induced reduction in total cell number at 15 uM measured after 36 hrs by EdU-incorporation assay; type: functional, cell-based
C2C12 [10] = test: Angiogenic activity in mouse C2C12 cells assessed as reversal of hyperglycemia-induced reduction in total cell number at 300 uM measured after 36 hrs by EdU-incorporation assay; type: functional, cell-based
C2C12 [11] = test: Apoptotic rate in hyperglycemia-treated mouse C2C12 cells assessed as early apoptotic cells at 15 uM by AnnexinV-FITC/PI staining based flow cytometric analysis (reference value: 7.10 %); type: functional
C2C12 [12] = test: Angiogenic activity in mouse C2C12 cells assessed as accumulation HIF-1alpha protein expression at 300 uM by Western blot analysis; type: functional, cell-based
C2C12 [13] = test: Angiogenic activity in mouse C2C12 cells assessed as accumulation VEGF-A protein expression at 300 uM by Western blot analysis; type: functional, cell-based
C2C12 [14] = test: Apoptotic rate in hyperglycemia-treated mouse C2C12 cells assessed as necrotic cells at 15 uM by AnnexinV-FITC/PI staining based flow cytometric analysis (reference value: 0.56 %); type: functional
C2C12 [15] = test: Apoptotic rate in hyperglycemia-treated mouse C2C12 cells assessed as viable cells at 15 uM by AnnexinV-FITC/PI staining based flow cytometric analysis (reference value: 81.90 %); type: functional; conditions: read-out: Activity
C2C12 [16] = test: Induction of proliferation of hyperglycemia-induced mouse C2C12 cell apoptosis assessed as decrease in Annexin V/PI-positive cells at 30 uM pretreated with compound under hyperglycemia condition for 12 hr followed by hypoxia for 24 hrs; type: functional, cell-based; conditions: time 36.0 hrs
C2C12 [17] = test: Apoptotic rate in hyperglycemia-treated mouse C2C12 cells assessed as necrotic cells at 30 uM by AnnexinV-FITC/PI staining based flow cytometric analysis (reference value: 0.56 %); type: functional
C2C12 [18] = test: Apoptotic rate in hyperglycemia-treated mouse C2C12 cells assessed as early apoptotic cells at 30 uM by AnnexinV-FITC/PI staining based flow cytometric analysis (reference value: 7.10 %); type: functional
C2C12 [19] = test: Apoptotic rate in hyperglycemia-treated mouse C2C12 cells assessed as late apoptotic cells at 30 uM by AnnexinV-FITC/PI staining based flow cytometric analysis (reference value: 10.44 %); type: functional
C2C12 [20] = test: Apoptotic rate in hyperglycemia-treated mouse C2C12 cells assessed as late apoptotic cells at 15 uM by AnnexinV-FITC/PI staining based flow cytometric analysis (reference value: 10.44 %); type: functional
C2C12 [21] = test: Angiogenic activity in mouse C2C12 cells assessed as accumulation PDGF-BB protein expression at 300 uM by Western blot analysis; type: functional, cell-based
C2C12 [22] = test: Apoptotic rate in hyperglycemia-treated mouse C2C12 cells assessed as viable cells at 30 uM by AnnexinV-FITC/PI staining based flow cytometric analysis (reference value: 81.90 %); type: functional; conditions: read-out: Activity
C2C12 [23] = test: Induction of proliferation of hyperglycemia-induced mouse C2C12 cell apoptosis assessed as decrease in Annexin V/PI-positive cells at 15 uM pretreated with compound under hyperglycemia condition for 12 hr followed by hypoxia for 24 hrs; type: functional, cell-based; conditions: time 36.0 hrs
C2C12 [24] = test: Induction of proliferation of hyperglycemia-induced mouse C2C12 cell death assessed as increase in number of EdU-positive cells at 7.5 to 300 uM pretreated with compound under hyperglycemia condition for 12 hr followed by hypoxia for 24 hrs; type: functional, cell-based; conditions: dose 7.5-300 µM, time 36.0 hrs
C2C12 [25] = test: Angiogenic activity in mouse C2C12 cells assessed as reversal of hyperglycemia-induced reduction in total cell number at 100 uM measured after 36 hrs by EdU-incorporation assay; type: functional, cell-based
C2C12 [26] = test: Induction of proliferation of hyperglycemia-induced mouse C2C12 cell death assessed as increase in number of EdU-positive cells at 15 uM pretreated with compound under hyperglycemia condition for 12 hr followed by hypoxia for 24 hrs; type: functional, cell-based; conditions: time 36.0 hrs
C2C12 [27] = test: Angiogenic activity in mouse C2C12 cells assessed as accumulation ANG1 protein expression at 300 uM by Western blot analysis; type: functional, cell-based
C2C12 [28] = test: Angiogenic activity in mouse C2C12 cells assessed as reversal of hyperglycemia-induced reduction in total cell number at 30 uM measured after 24 hrs by EdU-incorporation assay; type: functional, cell-based
C2C12 [29] = test: Angiogenic activity in mouse C2C12 cells assessed as reversal of hyperglycemia-induced reduction in total cell number at 7.5 uM measured after 36 hrs by EdU-incorporation assay; type: functional, cell-based

Question: For `OC[C@H]1O[C@@H](OCCCc2ccc(O)cc2)[C@H](O)[C@@H](O)[C@@H]1O`, which fold change (FC) [1] is on record?
Answer: 1.52

Question: For `OC[C@H]1O[C@@H](OCCc2ccccc2)[C@H](O)[C@@H](O)[C@@H]1O`, which fold change (FC) [1] is on record?
Answer: 1.76

Question: And the inhibition [2]?
Answer: Active

Question: Which fold change (FC) [1] does the source give for `COc1ccc(CCO[C@@H]2O[C@H](CO)[C@@H](O)[C@H](O)[C@H]2O)cc1` here?
Answer: 1.69

Question: And the inhibition [2]?
Answer: Active

Question: With `OC[C@H]1O[C@@H](Oc2ccc(Cc3ccc(O)cc3)cc2)[C@H](O)[C@@H](O)[C@@H]1O` as the compound, how does the logP [3] read?
Answer: 0.076

Question: What about the solubility [4] of the same compound?
Answer: 1640 µg/mL (≈ 4.53 mM)

Question: What about the pKa [5] of the same compound?
Answer: 10.4

Question: What about the efflux ratio [6] of the same compound?
Answer: 1.09

Question: And the Papp B→A [7]?
Answer: 1.42 ×10⁻⁶ cm/s

Question: What about the Papp A→B [8] of the same compound?
Answer: 1.3 ×10⁻⁶ cm/s

Question: What does the source list for `COc1ccc(Cc2ccc(O[C@@H]3O[C@H](CO)[C@@H](O)[C@H](O)[C@H]3O)cc2)cc1`?
Answer: logP [3]: 1.02; Activity (C2C12 [9]): Active; Activity (C2C12 [10]): Active; fold change (FC) [1]: 2.5; solubility [4]: 1320 µg/mL (≈ 3.51 mM); inhibition [2]: Active; pKa [5]: > 14; Activity (C2C12 [11]): 5.4%; inhibition (C2C12 [12]): Active; inhibition (C2C12 [13]): Active; Activity (C2C12 [14]): 0.49%; viability at 15 µM (C2C12 [15]): 83.5%; Activity (C2C12 [16]): inactive; efflux ratio [6]: 1.06; Activity (C2C12 [17]): 0.41%; Activity (C2C12 [18]): 3.21%; Activity (C2C12 [19]): 7.14%; Activity (C2C12 [20]): 10.59%; Papp B→A [7]: 1.78 ×10⁻⁶ cm/s; inhibition (C2C12 [21]): Active; viability at 30 µM (C2C12 [22]): 89.2%; Activity (C2C12 [23]): inactive; Activity (C2C12 [24]): inactive; Activity (C2C12 [25]): Active; Activity (C2C12 [26]): Active; inhibition (C2C12 [27]): Active; Activity (C2C12 [28]): Active; Activity (C2C12 [29]): inactive; Papp A→B [8]: 1.68 ×10⁻⁶ cm/s

Question: For `OC[C@H]1O[C@@H](CCCc2ccc(O)cc2)[C@H](O)[C@@H](O)[C@@H]1O`, which inhibition [2] is on record?
Answer: inactive

Question: For `C[C@H]1O[C@@H](O[C@H]2[C@@H](O)C[C@H](O[C@H]3[C@@H](O)C[C@H](O[C@H]4CC[C@@]5(C)[C@H](CC[C@@H]6[C@@H]5C[C@@H](O)[C@]5(C)[C@@H](C7=CC(=O)OC7)CC[C@]65O)C4)O[C@@H]3C)O[C@@H]2C)C[C@H](O)[C@@H]1O` [DIGOXIN], which efflux ratio [6] is on record?
Answer: 11.1

Question: And the Papp B→A [7]?
Answer: 14.7 ×10⁻⁶ cm/s

Question: What about the Papp A→B [8] of the same compound?
Answer: 1.33 ×10⁻⁶ cm/s

Question: For `OC[C@H]1O[C@@H](Oc2ccc(Cc3ccc(O)c(O)c3)cc2)[C@H](O)[C@@H](O)[C@@H]1O`, which “HIF-1alpha inhibition call (active/inactive)” value [1] is on record?
Answer: Active

Question: Which results are given for `OC[C@H]1O[C@@H](OCCc2ccc(F)cc2)[C@H](O)[C@@H](O)[C@@H]1O`?
Answer: fold change (FC) [1]: 1.47; inhibition [2]: Active

Question: What does the source list for `COc1ccc(-c2ccc(O[C@@H]3O[C@H](CO)[C@@H](O)[C@H](O)[C@H]3O)cc2)cc1`?
Answer: fold change (FC) [1]: 2.5; inhibition [2]: Active

Question: Which logP [3] does the source give for `COc1ccc(Cc2ccccc2O[C@@H]2O[C@H](CO)[C@@H](O)[C@H](O)[C@H]2O)cc1` [SERGLIFLOZIN A] here?
Answer: 1.07

Question: And the fold change (FC) [1]?
Answer: 0.78

Question: What about the solubility [4] of the same compound?
Answer: 6710 µg/mL (≈ 17.8 mM)

Question: And the pKa [5]?
Answer: > 14

Question: What about the efflux ratio [6] of the same compound?
Answer: 1.04

Question: What about the Papp B→A [7] of the same compound?
Answer: 1.82 ×10⁻⁶ cm/s

Question: What about the Papp A→B [8] of the same compound?
Answer: 1.75 ×10⁻⁶ cm/s

Question: Which results are given for `COc1ccc(-c2cccc(O[C@@H]3O[C@H](CO)[C@@H](O)[C@H](O)[C@H]3O)c2)cc1`?
Answer: fold change (FC) [1]: 2.5; inhibition [2]: Active

Question: Which fold change (FC) [1] does the source give for `CC(C)(CO[C@@H]1O[C@H](CO)[C@@H](O)[C@H](O)[C@H]1O)c1ccc(O)cc1` here?
Answer: 1.73

Question: For `OC[C@H]1O[C@@H](OCC2(c3ccc(O)cc3)CCC2)[C@H](O)[C@@H](O)[C@@H]1O`, which fold change (FC) [1] is on record?
Answer: 1.63

Question: And the inhibition [2]?
Answer: Active

Question: Which inhibition [2] does the source give for `COc1ccc(C(C)(C)CO[C@@H]2O[C@H](CO)[C@@H](O)[C@H](O)[C@H]2O)cc1` here?
Answer: Active

Question: Which Papp A→B [8] does the source give for `O=S1(=O)OC(c2ccc(O)cc2)(c2ccc(O)cc2)c2ccccc21` [PHENOLSULFONPHTHALEIN] here?
Answer: 0.35 ×10⁻⁶ cm/s

Source: ChEMBL document CHEMBL5038635, “Discovery of Salidroside-Derivated Glycoside Analogues as Novel Angiogenesis Agents to Treat Diabetic Hind Limb Ischemia” (J Med Chem, 2022)
